Experimental data from PMC10057847, “Precision engineering of biological function with large-scale measurements and machine learning” (PLOS ONE, 2023).

Molecular target: T1, pVER-IPTG-006 (Escherichia coli, UniProt P03023, A241V/A341T/D88Y/L305M/L319F/L346S/N246S/P339T)
T1 construct: gene lacI; LacI expressed from pVER plasmid
Assay: In vivo IPTG dose-response of LacI-regulated eYFP expression from the pVER plasmid in E. coli grown in rich M9 medium at 37 °C, measured by flow cytometry and fitted to the Hill equation by Bayesian MCMC (posterior mean and SD).
Type: cell-based, E. coli MG1655Δlac
Settings: read-out: log_ec50 (base-10 logarithm of EC50 in μmol/L) (converted)
Protocol: All reported measurements were completed using E. coli strain MG1655Δlac, in which the lactose operon of E. coli strain MG1655 (ATCC #47076) was replaced with the bleomycin resistance gene from Streptoalloteichus hindustanus (Shble).
Dose-response curves were measured with flow cytometry using E. coli MG1655Δlac transformed with variants of the pVER plasmid, described previously. The plasmid contained different variants of the lacI coding DNA sequence (CDS), as described in the text, and an expression cassette with enhanced yellow fluorescent protein (eYFP) under the control of the lactose operator (lacO). The lacI CDS was verified with Sanger sequencing for each variant.
All cultures were grown in a rich M9 media (3 g/L KH2PO4, 6.78 g/L Na2HPO4, 0.5 g/L NaCl, 1 g/L NH4Cl, 0.1 mmol/L CaCl2, 2 mmol/L MgSO4, 4% glycerol, and 20 g/L casamino acids) supplemented with 50 μg/mL kanamycin.
• Prepare first growth plate, with 450 μL rich M9 media in each well. • Pipette 50 μL of starter culture into each well in rows B-G of the plate (leaving rows A and H blank). • Use a E. coli containing a different lacI variant for each row. • Seal first growth plate with gas permeable membrane. • Incubate plate in plate reader for 12 h to 14 h. • Grow to stationary to provide a reproducible starting point for each measurement. • Prepare second growth plate with 490 μL in each well. • Dilution series of isopropyl-β-D-thiogalactopyranoside (IPTG): 11 columns of a 2-fold serial dilution gradient and one column with zero IPTG. • Ten minutes before the end of the incubation cycle for the first growth plate, move the second growth plate to a heated station set to 47°C. • Ten minutes at 47°C will pre-warm the media in the plate to 37°C. • De-seal the first growth plate (after completion of the stationary-phase incubation cycle). • Pipette 10 μL from each well in the first growth plate to the corresponding well in the second growth plate. • 50-fold dilution; using a 96-channel pipetting head. • Seal second growth plate with gas permeable membrane. • Incubate second growth plate in plate reader for 160 minutes. • Sufficient for approximately 10-fold increase in cell density or 3.3 doublings. • Prepare third growth plate with 450 μL in each well. • Same dilution series as in second growth plate. • Ten minutes before the end of the incubation cycle for the second growth plate, move the third growth plate to a heated station set to 47°C. • De-seal the second growth plate (after completion of the 160 minute incubation cycle). • Pipette 50 μL from each well in the second growth plate to the corresponding well in the third growth plate. • 10-fold dilution; using a 96-channel pipetting head. • Seal third growth plate with gas permeable membrane. • Incubate third growth plate in plate reader for 160 minutes. • Prepare flow cytometry sample plate (round-bottom 96-well plate, Falcon, 351177). • Each well in rows B-G: 195 μL 1x PBS with 170 μg/mL chloramphenicol (Fisher BioReagents, cat. #BP904-100). • Rows A and H: PBS blanks, focusing fluid blanks, and space for calibration bead sample • At the end of the incubation cycle for the third growth plate, pipette 5 μL from each well to the corresponding well in the flow cytometry sample plate.
Flow cytometry samples were measured with an Attune NxT flow cytometer equipped with a 96-well plate autosampler using a 488 nm excitation laser and a 530 nm ± 15 nm bandpass emission filter. Blank samples were measured with each batch of cell measurements, and an automated gating algorithm was used to discriminate cell events from non-cell events. Fluorescence calibration beads (Spherotech, part no. RCP-30-20A) were also measured with each batch of samples to facilitate calibration of flow cytometry data to molecules of equivalent fluorescein (MEF). […]

T1 sequence (P03023 whole entry D88Y/A241V/N246S/L305M/L319F/P339T/A341T/L346S): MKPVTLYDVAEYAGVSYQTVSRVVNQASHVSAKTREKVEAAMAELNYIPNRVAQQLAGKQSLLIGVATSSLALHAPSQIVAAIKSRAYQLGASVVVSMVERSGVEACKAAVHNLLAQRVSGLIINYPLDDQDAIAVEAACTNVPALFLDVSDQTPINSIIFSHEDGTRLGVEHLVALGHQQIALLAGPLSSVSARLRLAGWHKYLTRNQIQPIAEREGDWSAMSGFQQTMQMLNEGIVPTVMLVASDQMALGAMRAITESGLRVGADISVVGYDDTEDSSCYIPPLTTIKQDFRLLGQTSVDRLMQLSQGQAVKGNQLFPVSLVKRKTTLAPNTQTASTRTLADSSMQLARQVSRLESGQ

## CC(C)S[C@@H]1O[C@H](CO)[C@H](O)[C@H](O)[C@H]1O [IPTG, isopropyl-β-D-thiogalactopyranoside]
  EC50: 540 µmol/L
